Legend:
Type in all cases: biochemical
human thrombin = human thrombin (Homo sapiens, UniProt P00734); experiment: Thrombin amidase inhibition (Kass), chromogenic substrate
Protocol: The assay is carried out by mixing 50 μl buffer (0.03M Tris, 0.15M NaCl, pH 7.4) with 25 μl of human thrombin solution (purified human thrombin, Enzyme Research Laboratories, South Bend, Ind., at 8 NIH units/ml) and 25 μl of test compound in a solvent (50% aqueous methanol (v:v)). Then 150 μl of an aqueous solution of the chromogenic substate (at 0.25 mg/ml) are added and the rates of hydrolysis of the substrate are measured by monitoring the reactions at 405 nm for the release of p-nitroaniline. Standard curves are constructed by plotting free thrombin concentration against hydrolysis rate. […] The amount of free inhibitor in each assay is calculated by subtracting the number of moles of bound thrombin from the number of moles of added inhibitor (test compound).
The Kass value is the hypothetical equilibrium constant for the reaction between thrombin and the test compound (I) . [formula]
Kass is calculated for a range of concentrations of test compounds and the mean value reported in units of liter per mole.

factor Xa = target: T1, factor Xa (Homo sapiens, UniProt P00742); experiment: Serine protease inhibition (Kass), factor Xa
T1 construct: Human factors X, Xa, IXa, XIa, and XIIa are purchased from Enzyme Research Laboratories; purchased Enzyme Research Laboratories, South Bend, Ind
Protocol: (§1) By substantially following the procedures described above for human thrombin, and using other human blood coagulation system serine proteases and using fibrinolytic system serine proteases, with the appropriate chromogenic substrates, identified below, the selectivity of the compounds of the present invention with respect to the coagulation factor serine proteases and to the fibronolytic serine proteases are evaluated as well as their substantial lack of interference with human plasma clot fibrinolysis.
(§2) Human factors X, Xa, IXa, XIa, and XIIa are purchased from Enzyme Research Laboratories, South Bend, Ind.; human urokinase from Leo Pharmaceuticals, Denmark; and recombinant activated Protein C (aPC) is prepared at Eli Lilly and Co. substantially according to U.S. Pat. No. 4,981,952 incorporated by reference herein in its entirety. Chromogenic substrates: N-Benzoyl-Ile-Glu-Gly-Arg-p-nitroanilide (for factor Xa); N-Cbz-D-Arg-Gly-Arg-p-nitroanilide (for factor IXa assay as the factor Xa substrate); Pyroglutamyl-Pro-Arg-p-nitroanilide (for Factor XIa and for aPC); H-D-Pro-Phe-Arg-p-nitroanilide (for factor XIIa); and Pyroglutamyl-Gly-Arg-p-nitroanilide (for urokinase); are purchased from KabiVitrum, Stockholm, Sweden, or from Midwest Biotech, Fishers, Ind. Bovine trypsin is purchased from Worthington Biochemicals, Freehold, N.J., and human plasma kallikrein from Kabi Vitrum, Stockholm, Sweden. Chromogenic substrate H-D-Pro-Phe-Arg-p-nitroanilide for plasma kallikrein is purchased from Kabi Vitrum, Stockholm, Sweden. N-Benzoyl-Phe-Val-Arg-p-nitroanilide, the substrate for human thrombin and for trypsin, is synthesized according to procedures described above for the compounds of the present invention, using known methods of peptide coupling from commercially available reactants, or purchaed from Midwest Biotech, Fishers, Ind.

Bovine trypsin = target: T2, Bovine trypsin (Bos taurus, UniProt P00760); experiment: Serine protease inhibition (Kass), trypsin
T2 construct: Bovine trypsin is purchased from Worthington Biochemicals; purchased Worthington Biochemicals, Freehold, N.J
T2 sequence (P00760 24-246): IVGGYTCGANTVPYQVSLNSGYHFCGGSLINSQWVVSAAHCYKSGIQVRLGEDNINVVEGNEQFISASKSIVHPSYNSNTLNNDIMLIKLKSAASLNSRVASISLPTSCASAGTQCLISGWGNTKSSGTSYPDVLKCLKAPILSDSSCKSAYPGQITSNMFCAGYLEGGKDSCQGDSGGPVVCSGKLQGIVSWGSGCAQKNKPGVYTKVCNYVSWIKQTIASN
Protocol: as §1, §2

Human plasmin = target: T3, Human plasmin (Homo sapiens, UniProt P00747); experiment: Serine protease inhibition (Kass), plasmin
T3 construct: Human plasmin is purchased from Boehringer Mannheim; purchased Boehringer Mannheim, Indianapolis, Ind
Protocol: as §1
(§3) Human plasmin is purchased from Boehringer Mannheim, Indianapolis, Ind.; nt-PA is purchased as single chain activity reference from American Diagnostica, Greenwich, Conn.; modified-t-PA6 (mt-PA6) is prepared at Eli Lilly and Company by procedure known in the art (See, Burck, et al., J. Biol. Chem., 265, […] (1990). Plasmin chromogenic substrate H-D-Val-Leu-Lys-p-nitroanilide and tissue plasminogen activator (t-PA) substrate H-D-Ile-Pro-Arg-p-nitroanilide are purchased from Kabi Vitrum, Stockholm, Sweden.

[1] = target: T4, tissue plasminogen activator (t-PA) (Homo sapiens, UniProt P00750); experiment: Serine protease inhibition (Kass), t-PA
T4 construct: purchased American Diagnostica, Greenwich, Conn
Protocol: as §1, §3

human plasma [2] = experiment: Human plasma anticoagulation, thrombin time (TT)
Protocol: (§4) Fibrinogen is prepared from in-date ACD human blood as the fraction I-2 according to previous procedures and specifications. Smith, Biochem. […] Coagulation reagents ACTIN, Thromboplastin, and Human plasma are from Baxter Healthcare Corp., Dade Division, Miami, Fla. Bovine thrombin from Parke-Davis (Detroit, Mich.) is used for coagulation assays in plasma. Coagulation assay procedures are as previously described. […] A CoAScreener coagulation instrument (American LABor, Inc.) is used for all coagulation assay measurements. […] The compounds of formula I are added to human or animal plasma over a wide range of concentrations to determine prolongation effects on the APTT, PT, and TT assays. Linear extrapolations are performed to estimate the concentrations required to double the clotting time for each assay.

human plasma [3] = experiment: Human plasma anticoagulation, activated partial thromboplastin time (APTT)
Protocol: as §4

human plasma [4] = experiment: Human plasma anticoagulation, prothrombin time (PT)
Protocol: as §4

T3 sequence (P00747 581-810 limits assumed): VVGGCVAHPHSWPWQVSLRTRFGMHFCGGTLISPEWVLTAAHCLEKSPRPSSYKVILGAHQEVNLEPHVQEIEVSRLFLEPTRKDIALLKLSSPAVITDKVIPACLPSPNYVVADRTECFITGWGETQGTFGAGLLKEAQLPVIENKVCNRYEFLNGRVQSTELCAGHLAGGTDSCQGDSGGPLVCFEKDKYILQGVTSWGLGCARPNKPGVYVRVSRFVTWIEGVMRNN
T3 sequence (P00747 97-580 partner limits assumed): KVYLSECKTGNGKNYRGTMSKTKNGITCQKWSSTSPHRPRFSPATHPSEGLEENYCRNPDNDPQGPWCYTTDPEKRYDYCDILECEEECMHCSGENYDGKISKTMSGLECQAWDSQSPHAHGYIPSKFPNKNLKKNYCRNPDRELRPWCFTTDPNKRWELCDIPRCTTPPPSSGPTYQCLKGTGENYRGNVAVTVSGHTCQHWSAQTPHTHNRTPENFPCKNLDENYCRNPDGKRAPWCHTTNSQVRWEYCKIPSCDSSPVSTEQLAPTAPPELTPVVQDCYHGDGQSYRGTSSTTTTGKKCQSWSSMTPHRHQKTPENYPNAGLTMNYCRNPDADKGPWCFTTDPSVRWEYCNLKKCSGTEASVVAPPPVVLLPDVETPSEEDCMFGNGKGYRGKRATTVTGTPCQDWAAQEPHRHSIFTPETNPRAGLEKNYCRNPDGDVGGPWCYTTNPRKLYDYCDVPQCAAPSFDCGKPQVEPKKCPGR
T4 sequence (P00750 36-562): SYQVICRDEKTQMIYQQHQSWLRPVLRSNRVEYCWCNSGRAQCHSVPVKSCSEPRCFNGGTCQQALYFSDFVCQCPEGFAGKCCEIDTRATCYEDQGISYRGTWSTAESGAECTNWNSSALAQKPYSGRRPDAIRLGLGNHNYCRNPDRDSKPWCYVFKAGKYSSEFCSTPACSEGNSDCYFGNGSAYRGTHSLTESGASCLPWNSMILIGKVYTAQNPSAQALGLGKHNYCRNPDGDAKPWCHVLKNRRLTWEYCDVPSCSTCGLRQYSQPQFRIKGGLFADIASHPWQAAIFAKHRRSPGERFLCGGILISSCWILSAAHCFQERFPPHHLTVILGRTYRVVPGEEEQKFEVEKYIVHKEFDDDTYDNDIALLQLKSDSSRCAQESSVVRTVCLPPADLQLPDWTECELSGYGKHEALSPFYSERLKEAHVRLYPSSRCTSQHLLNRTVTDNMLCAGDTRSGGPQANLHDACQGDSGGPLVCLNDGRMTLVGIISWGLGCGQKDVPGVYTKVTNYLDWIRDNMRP
T1 sequence (P00742 235-488 limits assumed): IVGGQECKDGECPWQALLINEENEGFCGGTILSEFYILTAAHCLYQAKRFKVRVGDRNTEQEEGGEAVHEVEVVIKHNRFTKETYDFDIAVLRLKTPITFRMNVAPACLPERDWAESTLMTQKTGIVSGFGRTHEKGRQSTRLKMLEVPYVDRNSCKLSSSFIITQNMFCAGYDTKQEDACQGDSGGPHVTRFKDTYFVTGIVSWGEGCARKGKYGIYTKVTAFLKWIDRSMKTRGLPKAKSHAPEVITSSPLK
T1 sequence (P00742 41-179 partner limits assumed): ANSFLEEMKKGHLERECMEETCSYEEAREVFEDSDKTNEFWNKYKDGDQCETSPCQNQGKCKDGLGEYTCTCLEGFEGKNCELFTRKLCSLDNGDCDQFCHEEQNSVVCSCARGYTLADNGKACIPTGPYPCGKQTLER

SMILES	Kass Human Thrombin (human thrombin) [L/mol × 10^6]	Kass Xa (factor Xa) [L/mol × 10^6]	Kass Trypsin (Bovine trypsin) [L/mol × 10^6]	Kass Plasmin (Human plasmin) [L/mol × 10^6]	Kass t-PA [1] [L/mol × 10^6]	2 × Clotting time TT (human plasma [2]) [ng/mL]	2 × Clotting time APTT (human plasma [3])	2 × Clotting time PT (human plasma [4])
Cl.N=C(N)NCCC[C@@H](C=O)NC(=O)[C@@H]1CCCN1C(=O)[C@@H](Cc1ccccc1)NS(=O)(=O)c1nccs1 [Example 63, N-(2-thiazolylsulfonyl)-D-phenylalanyl-L-Prolinyl-L-Arginine Aldehyde Hydrochloride]	68	2.8	52	3.4	0.31	66	810 ng/mL	2,900 ng/mL
CCS(=O)(=O)N[C@@H](Cc1ccccc1)C(=O)N1CCC[C@@]1(C)C(=O)N[C@H](C=O)CCCNC(=N)N.Cl [Example 33, N-ethylsulfonylphenylalanyl(αmethyl)-L-prolinyl-L-arginine aldehyde hydrochloride]	0.6	0.027	1.7	0.056	0.007	300	5,400 ng/mL	7,300 ng/mL
CCS(=O)(=O)N[C@@H](C(=O)N1CCC[C@H]1C(=O)N[C@H](C=O)CCCNC(=N)N)C1CCCCC1.Cl [Example 66, N-(ethylsulfonyl)-D-cyclohexylglycinyl-L-Prolinyl-L-Arginine Aldehyde Hydrochloride]	260	24	260	13	0.11	46	330 ng/mL	1,100 ng/mL
CCCC[C@](Cc1ccccc1)(NC(=O)OCC)C(=O)N1CCC[C@H]1C(=O)N[C@H](C=O)CCCNC(=N)N.Cl [Example 39, N-ethoxycarbonyl-D-phenylalanyl(αn-butyl)-L-prolinyl-L-arginine aldehyde hydrochloride]	66	0.095	21	0.066	< 0.001	160	3,400 ng/mL	3,000 ng/mL
Cl.N=C(N)NCCC[C@@H](C=O)NC(=O)[C@@H]1CCCN1C(=O)[C@@H](Cc1ccccc1)NC(=O)C(F)(F)F [Example 69, N-(trifluoroacetyl)-D-phenylalanyl-L-Prolinyl-L-Arginine Aldehyde Hydrochloride]	26	0.033	15	0.31	0.17	59	1,300 ng/mL	1,800 ng/mL
Cl.Cl.N=C(N)NCCC[C@@H](C=O)NC(=O)[C@]1(Cc2ccccc2)CCCN1C(=O)[C@@H]1CCCN1 [Example 25, Prolinyl (αbenzyl)-L-Prolinyl-L-Arginine Aldehyde Dihydrochloride]	350	0.27	43	0.77	0.0045	28	960 ng/mL	1,400 ng/mL
CCNC(=O)N[C@H](Cc1ccccc1)C(=O)N1CCC[C@H]1C(=O)N[C@H](C=O)CCCNC(=N)N.Cl [Example 76, N-(ethylaminocarbonyl)-D-phenylalanyl-L-Prolinyl-L-Arginine Aldehyde Hydrochloride]	25	0.21	60	2.0	0.54	63	1,100 ng/mL	1,700 ng/mL
CCS(=O)(=O)NC(C)(C(=O)N1CCC[C@H]1C(=O)N[C@H](C=O)CCCNC(=N)N)c1ccccc1.Cl (stereo partly drawn) [Example 41, N-ethylsulfonyl-(D,L)-phenylglycinyl(αmethyl)-L-prolinyl-L-arginine aldehyde hydrochloride]	430	0.49	42	1.2	0.023	52	1,200 ng/mL	2,100 ng/mL
C[C@@]1(C(=O)N[C@H](C=O)CCCNC(=N)N)CCCN1C(=O)[C@H](Cc1ccccc1)NS(C)(=O)=O.Cl [Example 44, N-methylsulfonylphenylalanyl(αmethyl)-L-prolinyl-L-arginine aldehyde hydrochloride]	2.1	0.033	1.4	0.031	0.0023	560	12,000 ng/mL	11,000 ng/mL
COc1ccc(OC)c(S(=O)(=O)N[C@H](Cc2ccccc2)C(=O)N2CCC[C@H]2C(=O)N[C@H](C=O)CCCNC(=N)N)c1.Cl [Example 59, N-(2,5-dimethoxyphenylsulfonyl)-D-phenylalanyl-L-Prolinyl-L-Arginine Aldehyde Hydrochloride]	200	8.8	150	9.5	1.5	92	550 ng/mL	2,000 ng/mL
CCCCC(CCCC)(NC(=O)OCC)C(=O)N1CCC[C@H]1C(=O)N[C@H](C=O)CCCNC(=N)N.Cl [Example 42, N-ethoxycarbonylglycinyl(α,αdi-n-butyl)-L-prolinyl-L-arginine aldehyde hydrochloride]		0.22	38	0.24	0.010	120	3,000 ng/mL	2,800 ng/mL
